According to patent publication US12415802B1, “Dipyridine benzothiophene derivative compound” (KING FAISAL UNIVERSITY, priority 2025, dated 2025):

Experiment: DPPH radical scavenging antioxidant test
Format: biochemical
Settings: 517 nm; for Inhibition (radical scavenging inhibition): 0.2 mL DPPH (0.75 mM), compound (3p M) in ethanol, 30 minutes in the dark; for antioxidant activity (in words): DPPH in vitro test, vitamin C as positive control
Source text: A dipyridine benzo[b]thiophene derivative compound comprises 4-(1-benzothiophen-2-yl)-6-ethoxy-2,3′-bipyridine-5-carbonitrile. […] As described herein, the antioxidant activity of 4-(1-benzothiophen-2-yl)-6-ethoxy-2,3′-bipyridine-5-carbonitrile was investigated by 2,2-diphenyl-1-picrylhydrazyl (DPPH) in vitro tests that employ vitamin C as the positive control.
The antioxidant properties of the 4-(1-benzothiophen-2-yl)-6-ethoxy-2,3′-bipyridine-5-carbonitrile compound were studied by adding 0.2 mL DPPH (0.75 mM)) to 4-(1-benzothiophen-2-yl)-6-ethoxy-2,3′-bipyridine-5-carbonitrile (3p M) (4) in ethanol. After 30 minutes of incubation in the dark, the absorbance was read against a blank at 517 nm. Ascorbic acid (Vitamin C) was used as a standard antioxidant (positive control). A blank sample was prepared by 0.2 mL of DPPH in 3 mL ethanol. A negative control sample was run using ethanol instead of the sample. The radical scavenging inhibition was calculated using the following equation: […]
The antioxidant activity for the synthesized compound is listed in Table 1, using Vitamin C as a reference.

CCOc1nc(-c2cccnc2)cc(-c2cc3ccccc3s2)c1C#N [Product 4, 4-(1-benzothiophen-2-yl)-6-ethoxy-2,3′-bipyridine-5-carbonitrile]
Inhibition (radical scavenging inhibition): 48%
antioxidant activity (in words): high antioxidant activities
antioxidant activity (in words) (listed as III): high potential as an antioxidant compared to vitamin C

O=C1O[C@H]([C@@H](O)CO)C(O)=C1O [Vit C, Ascorbic acid, reference compound]
Inhibition (radical scavenging inhibition): 74%
